Earlier results as cited in US20220000750A1, “THE PROCESS FOR THE PREPARATION AND USE OF HAIR TREATMENT COMPOSITIONS CONTAINING ORGANIC C1-C6 ALKOXY SILANES” (Henkel AG & Co. KGaA, priority 2019, published 2022).

Conditions: 25° C.

Structure (SMILES)	solubility in water	solubility in water (in words)
CCN(Cc1cccc(S(=O)(=O)[O-])c1)c1ccc(C(=C2C=CC(=[N+](CC)Cc3cccc(S(=O)(=O)[O-])c3)C=C2)c2ccccc2S(=O)(=O)[O-])cc1.[Na+].[Na+] [Acid Blue 9]	more than 20 % by weight	
O=S(=O)([O-])c1ccc(N=Nc2c(O)ccc3ccccc23)cc1.[Na+] [Acid Orange 7, sodium salt of 4-[(2-hydroxy-1-naphthyl)azo]benzene sulphonate]	more than 7 g/L	
Nc1cc(S(=O)(=O)[O-])cc2cc(S(=O)(=O)[O-])c(N=Nc3ccccc3)c(O)c12.[Na+].[Na+] [Acid Red 33, diantrium salt of 5-amino-4-hydroxy-3-(phenylazo)-naphthalene-2,7-disulphonate]	2500 µg/mL	
O=C([O-])c1c(Cl)c(Cl)c(Cl)c(Cl)c1-c1c2c(Br)cc(=O)c(Br)c-2oc2c(Br)c(O)cc(Br)c12.O=C([O-])c1c(Cl)c(Cl)c(Cl)c(Cl)c1-c1c2c(Br)cc(=O)c(Br)c-2oc2c(Br)c(O)cc(Br)c12.[Na+].[Na+] [Acid Red 92, disodium salt of 3,4,5,6-tetrachloro-2-(1,4,5,8-tetrabromo-6-hydroxy-3-oxoxanthen-9-yl)benzoic acid]	greater than 10 g/L	
O=C([O-])C1=NN(c2ccc(S(=O)(=O)[O-])cc2)C(=O)C1N=Nc1ccc(S(=O)(=O)[O-])cc1.[Na+].[Na+].[Na+] (centres unmarked) [Acid Yellow 23, trisodium salt of 4,5-dihydro-5-oxo-1-(4-sulfophenyl)-4-((4-sulfophenyl)azo)-1H-pyrazole-3-carboxylic acid]		highly soluble
